Laboratory results reported in patent US20260103465A1, “GLYCOGEN SYNTHASE KINASE 3 INHIBITORS AND USES THEREOF” (The Broad Institute, Inc., priority 2023, published 2026).
Read-outs that look alike come from different tables or passages of the source.

Columns and labels:
[1] = biological target: T1, GSK3a (GST-full length GSK3a) (Homo sapiens, UniProt P49840); test: GSK3a TR-FRET kinase inhibition assay; type: biochemical
T1 construct: GST-full length GSK3a [SignalChem G08-10G]; purchased SignalChem G08-10G
Outline: (§1)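 IC50 derived from normalized 665/615 TR-FRET signal (Tb anti-pSer641 antibody, streptavidin-d2), read after EDTA stop. Reaction: 1 nM GST-full-length enzyme, 30 min compound pre-incubation, 100 min at ambient temperature in Tris pH 7.5 with 1% DMSO, 200 nM biotinylated primed glycogen synthase peptide, ATP 2 μM to 1 mM.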

[2] = biological target: T2, GSK3b (GST-full length GSK3b) (Homo sapiens, UniProt P49841); test: GSK3b TR-FRET kinase inhibition assay; type: biochemical
T2 construct: GST-full length GSK3b: [SignalChem G08-9G]; purchased SignalChem G08-9G
Outline: as §1

[3] = test system: MDR1-MDCK cell monolayers; test: MDR1/MDCK permeability assay; type: in vitro ADME; details: for MDCK Permeability (MDR1-MDCK); Mean; Papp(A-B) (10^−6 cm/s): A to B; for MDCK Permeability (MDR1-MDCK); Mean; Papp(B-A) (10^−6 cm/s): B to A; for MDCK Permeability (MDR1-MDCK); Mean; P. Ratio(B-A/A-B) Efflux Ratio / MIDCK Permeability (MDR1-MDCK); Mean; P. Ratio(B-A/A-B) Efflux Ratio: Papp B-A/A-B
Text: The MDR1/MDCK assay is run at WuXi and Absorption Systems. This assay is used to determine the blood-brain barrier (BBB) penetration potential of a test compound using MDR1-MDCK cell monolayers. Catalog number EA203.
• The percent recovery of the test compound from the Transwell® wells containing MDR1-MDCK cell monolayers • The apparent permeability (Papp) in both directions • The efflux ratio (Papp B to A)/(Papp A to B) • The blood-brain barrier penetration potential classification: • High when • Papp A to B≥3.0×10^−6 cm/s, and efflux<3.0 • Moderate when • Papp A to B≥3.0×10^−6 cm/s, and 10>efflux≥3.0 • Low when either • Papp A to B≥3.0×10^−6 cm/s, and […], or when • Papp A to B<[…].
• Test compound at 5 μM in HBSSg with maximum DMSO concentration not greater than 1%.
• Confluent monolayers of MDR1-MDCK cells, 7 to 11 days old.
• Receiver well with 1% BSA in modified Hanks buffer (HBSSg) • Apical and basolateral side at pH 7.4 • Dose two monolayers in each direction (N=2) • Dose apical side for (A to B) assessment • Dose basolateral side for (B to A) assessment • Sample both apical and basolateral sides at 120 minutes • Determine the concentrations of test compound using a generic LC-MS/MS method with a minimum 4 point calibration curve.
• The quality of the cell monolayer batch is verified using control compounds before monolayers are released for use • The quality of each monolayer used in the assay is verified by a TEER measurement and by calculating the Papp for a control compound.

[4] = Human liver microsomal stability; type: in vitro ADME; details: human liver microsomes
Procedure: Stability of compound (5 μL of a 10 mM DMSO solution) in human liver microsomes was tested in duplicate by incubating compound at 1 μM for 60 minutes at 37° C. Compound level at 60 minutes was compared to level at 0 minutes, and percent remaining was calculated. Order by selecting Microsomal Stability in Prometheus, checking boxes for desired species. Assay Controls: microsomes with NADPH without compound-matrix interference. Microsomes plus compound without NADPH—non-enzymatic instability.

[5] = 4 μM ATP, read-out: GSK3α TR-FRET 4 μM ATP GMean IC50
[6] = 1 mM ATP, Table 4, read-out: GSK3α TR-FRET 1 mM ATP GMean IC50
[7] = 2 μM ATP, read-out: GSK3β TR-FRET 2 μM ATP GMean IC50
[8] = 1 mM ATP, Table 4, read-out: GSK3β TR-FRET 1 mM ATP GMean IC50
[9] = 1 mM ATP, Table 3, read-out: GSK3a TR-FRET 1 mM ATP Average IC50
[10] = 1 mM ATP, Table 3, read-out: GSK3b TR-FRET 1 mM ATP Average IC50
[11] = 10 μM ATP, read-out: GSK3a 10 μM ATP Average IC50
[12] = 100 μM ATP, read-out: GSK3a 100 μM ATP Average IC50
[13] = 10 μM ATP, read-out: GSK3b 10 μM ATP Average IC50
[14] = 100 μM ATP, read-out: GSK3b 100 μM ATP Average IC50

T2 sequence (P49841 whole entry): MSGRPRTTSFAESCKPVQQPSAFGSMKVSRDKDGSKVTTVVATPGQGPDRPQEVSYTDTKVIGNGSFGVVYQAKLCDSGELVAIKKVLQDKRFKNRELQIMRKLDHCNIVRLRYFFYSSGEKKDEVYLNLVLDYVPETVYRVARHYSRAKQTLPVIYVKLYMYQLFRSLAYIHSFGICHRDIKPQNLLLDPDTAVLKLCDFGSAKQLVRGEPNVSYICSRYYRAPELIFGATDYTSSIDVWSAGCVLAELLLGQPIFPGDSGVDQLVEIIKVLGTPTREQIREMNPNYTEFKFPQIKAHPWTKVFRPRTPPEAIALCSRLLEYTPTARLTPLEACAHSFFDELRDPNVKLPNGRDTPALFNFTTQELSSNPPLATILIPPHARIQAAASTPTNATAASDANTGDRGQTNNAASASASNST
T1 sequence (P49840 whole entry): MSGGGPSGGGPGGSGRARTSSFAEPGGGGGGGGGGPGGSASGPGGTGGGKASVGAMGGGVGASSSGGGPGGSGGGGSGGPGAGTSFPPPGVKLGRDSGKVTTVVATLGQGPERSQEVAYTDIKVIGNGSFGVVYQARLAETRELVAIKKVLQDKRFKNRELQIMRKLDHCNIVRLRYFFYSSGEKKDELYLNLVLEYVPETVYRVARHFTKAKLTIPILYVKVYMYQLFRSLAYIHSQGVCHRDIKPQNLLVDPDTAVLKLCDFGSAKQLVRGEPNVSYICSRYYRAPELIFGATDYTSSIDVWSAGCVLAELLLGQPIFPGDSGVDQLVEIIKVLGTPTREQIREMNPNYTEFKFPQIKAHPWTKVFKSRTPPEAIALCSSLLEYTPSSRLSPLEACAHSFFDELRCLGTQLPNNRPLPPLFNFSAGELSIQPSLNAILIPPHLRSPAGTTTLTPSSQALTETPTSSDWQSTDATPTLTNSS

Row | Structure (SMILES) | IC50 [1, 5] [nM] | IC50 [1, 6] [nM] | IC50 [2, 7] [nM] | IC50 [2, 8] [nM] | MDCK Permeability (MDR1-MDCK); Mean; Papp(A-B) (10^−6 cm/s) ([3]; Table 4) | MDCK Permeability (MDR1-MDCK); Mean; Papp(B-A) (10^−6 cm/s) ([3]; Table 4) | MDCK Permeability (MDR1-MDCK); Mean; P. Ratio(B-A/A-B) Efflux Ratio ([3]; Table 4) | Microsome Stability (Human) (DMPK_BIIB); Mean; in vitro t1/2 ([4]; Table 4) [min] | IC50 [1, 9] [nM] | IC50 [2, 10] [nM] | MDCK Permeability (MDR1-MDCK); Mean; Papp(A-B) (10^−6 cm/s) ([3]; Table 3) | MDCK Permeability (MDR1-MDCK); Mean; Papp(B-A) (10^−6 cm/s) ([3]; Table 3) | MIDCK Permeability (MDR1-MDCK); Mean; P. Ratio(B-A/A-B) Efflux Ratio ([3]; Table 3) | Microsome Stability (Human) (DMPK_BIIB); Mean; in vitro t1/2 ([4]; Table 3) [min] | IC50 [1, 11] [nM] | IC50 [1, 12] [nM] | IC50 [2, 13] [nM] | IC50 [2, 14] [nM]
1 | CCC1(c2cccc(-c3c(F)cncc3OC)c2)C2=C(CC(C)(C)CC2=O)Nc2ncccc21 (single isomer, unassigned) [Compound 154B] | ≤ 100 | ≤ 100 | ≤ 100 | 100 to 1000 | 3.1 10^−6 cm/s | 25 10^−6 cm/s | 8.3 | 6.6 | 5000 to 20000 | 5000 to 20000 |  |  |  |  |  |  |  | 
2 | CCC1(c2cccc(-c3ccnc4c3CCCC4)c2)C2=C(CC(C)(C)CC2=O)Nc2ncc(F)cc21 (single isomer, unassigned) [Compound 165B] | ≤ 100 | 100 to 1000 | ≤ 100 | 100 to 1000 | 4.4 10^−6 cm/s | 24 10^−6 cm/s | 5.5 | 4.7 |  |  |  |  |  |  |  |  |  | 
3 | CC1(C)CC(=O)C2=C(C1)Nc1nccc(C(F)(F)F)c1C2(C)c1ccccc1 (single isomer, unassigned) [Compound 127A] |  |  |  |  |  |  |  |  | 100 to 1000 | 100 to 1000 | 17 10^−6 cm/s | 8.7 10^−6 cm/s | 0.50 | 8.3 |  |  |  | 
4 | CC(C)(C)Cc1cnccc1-c1cccc(C2(C)C3=C(CC(C)(C)CC3=O)Nc3ncc(F)cc32)c1 (single isomer, unassigned) [Compound 168A] |  |  |  |  |  |  |  |  | 100 to 1000 | 100 to 1000 | 2.5 10^−6 cm/s | 2.2 10^−6 cm/s | 0.90 | 33 |  |  |  | 
5 | CCC1(c2cccc(-c3c(C)nn(C)c3C)c2)C2=C(CC(C)(C)CC2=O)Nc2ncccc21 (single isomer, unassigned) [Compound 150A] | 1000 to 5000 |  | > 5000 |  |  |  |  |  | 100 to 1000 | 100 to 1000 | 20 10^−6 cm/s | 17 10^−6 cm/s | 0.93 | 1.9 | ≤ 100 | ≤ 100 | ≤ 100 | ≤ 100
6 | CC(C)(C)Cc1ccnc2c1C(C)(c1ccccc1)C1=C(CC(C)(C)CC1=O)N2 (single isomer, unassigned) [Compound 130A] |  |  |  |  |  |  |  |  | 5000 to 20000 | 5000 to 20000 | 1.4 10^−6 cm/s | 0.65 10^−6 cm/s | 0.48 | 0.55 | ≤ 100 | 100 to 1000 | ≤ 100 | 100 to 1000
7 | CCC1(c2ccccc2)C2=C(CC(C)(C)CC2=O)Nc2ncccc21 (single isomer, unassigned) [102 A] | ≤ 100 | 1000 to 5000 | ≤ 100 | 5000 to 20000 | 8.7 10^−6 cm/s | 26 10^−6 cm/s | 2.9 | 9.1 |  |  |  |  |  |  |  |  |  | 

Second part, the molecule after the results:

Row | IC50 [1, 5] [nM] | IC50 [1, 6] [nM] | IC50 [2, 7] [nM] | IC50 [2, 8] [nM] | MDCK Permeability (MDR1-MDCK); Mean; Papp(A-B) (10^−6 cm/s) ([3]; Table 4) | MDCK Permeability (MDR1-MDCK); Mean; Papp(B-A) (10^−6 cm/s) ([3]; Table 4) | MDCK Permeability (MDR1-MDCK); Mean; P. Ratio(B-A/A-B) Efflux Ratio ([3]; Table 4) | Microsome Stability (Human) (DMPK_BIIB); Mean; in vitro t1/2 ([4]; Table 4) [min] | IC50 [1, 9] [nM] | IC50 [2, 10] [nM] | MDCK Permeability (MDR1-MDCK); Mean; Papp(A-B) (10^−6 cm/s) ([3]; Table 3) | MDCK Permeability (MDR1-MDCK); Mean; Papp(B-A) (10^−6 cm/s) ([3]; Table 3) | MIDCK Permeability (MDR1-MDCK); Mean; P. Ratio(B-A/A-B) Efflux Ratio ([3]; Table 3) | Microsome Stability (Human) (DMPK_BIIB); Mean; in vitro t1/2 ([4]; Table 3) [min] | IC50 [1, 11] [nM] | IC50 [1, 12] [nM] | IC50 [2, 13] [nM] | IC50 [2, 14] [nM] | Structure (SMILES)
8 | ≤ 100 | 100 to 1000 | ≤ 100 | 1000 to 5000 | 14 10^−6 cm/s | 24 10^−6 cm/s | 1.8 | 6.4 |  |  |  |  |  |  |  |  |  |  | CCC1(c2cccc(-c3ccncc3C)c2)C2=C(CC(C)(C)CC2=O)Nc2ncccc21 (single isomer, unassigned) [Compound 1020B]
9 | ≤ 100 | 100 to 1000 | ≤ 100 | 1000 to 5000 | 6.6 10^−6 cm/s | 22 10^−6 cm/s | 3.3 | 4.6 |  |  |  |  |  |  |  |  |  |  | CCC1(c2cccc(-c3ccnc4c3CCCC4)c2)C2=C(CC(C)(C)CC2=O)Nc2ncccc21 (single isomer, unassigned) [Compound 1039B]
10 | ≤ 100 |  | ≤ 100 |  | 4.7 10^−6 cm/s | 44 10^−6 cm/s | 9.5 | 2.8 |  |  |  |  |  |  |  |  |  |  | CCC1(c2cccc(-c3cccnc3)c2)C2=C(CC(C)(C)CC2=O)Nc2ncccc21 (single isomer, unassigned) [Compound 1015A]
11 | ≤ 100 |  | ≤ 100 |  | 2.7 10^−6 cm/s | 26 10^−6 cm/s | 9.6 | 5.6 |  |  |  |  |  |  |  |  |  |  | CCC1(c2cccc(-c3ccncc3OC)c2)C2=C(CC(C)(C)CC2=O)Nc2ncc(F)cc21 (single isomer, unassigned) [Compound 1037B]
12 | ≤ 100 | 100 to 1000 | ≤ 100 | 1000 to 5000 | 3.0 10^−6 cm/s | 27 10^−6 cm/s | 9.0 | 3.2 |  |  |  |  |  |  |  |  |  |  | CCC1(c2cccc(-c3cn(C)nc3C)c2)C2=C(CC(C)(C)CC2=O)Nc2ncccc21 (single isomer, unassigned) [Compound 1023A]
13 | ≤ 100 |  | ≤ 100 |  | 4.6 10^−6 cm/s | 42 10^−6 cm/s | 9.1 | 5.5 |  |  |  |  |  |  |  |  |  |  | CCC1(c2cccc(-c3ccnn3C)c2)C2=C(CC(C)(C)CC2=O)Nc2ncc(F)cc21 (single isomer, unassigned) [Compound 1025A]
14 | ≤ 100 |  | ≤ 100 |  | 0.80 10^−6 cm/s | 39 10^−6 cm/s | 48 | 11 |  |  |  |  |  |  |  |  |  |  | CCC1(c2cccc(O)c2)C2=C(CC(C)(C)CC2=O)Nc2ncc(F)cc21 (single isomer, unassigned) [Compound 1010B]
15 | ≤ 100 |  | ≤ 100 |  | 7.6 10^−6 cm/s | 25 10^−6 cm/s | 3.3 | 4.1 |  |  |  |  |  |  |  |  |  |  | CCC1(c2cccc(-c3ccnc4c3CCC4)c2)C2=C(CC(C)(C)CC2=O)Nc2ncccc21 (single isomer, unassigned) [Compound 1034B]
16 | ≤ 100 |  | ≤ 100 |  | 0.90 10^−6 cm/s | 41 10^−6 cm/s | 43 | 16 |  |  |  |  |  |  |  |  |  |  | CCC1(c2cccc(-c3cncn3C(C)C)c2)C2=C(CC(C)(C)CC2=O)Nc2ncc(F)cc21 (single isomer, unassigned) [Compound 1038A]
